Here are results for 2 molecules from US11873321B2, “Compositions and methods for treating alzheimer's disease” (Generos Biopharma Ltd., priority 2017, dated 2024).

One experiment deals with APP/PS1 mice. Particulars: 2-month-old, injected every other day for 1 month, vs saline.
Experiment [1] relates to APP over-expression SH-SY5Y cell line. As to the kind of experiment: Western blot of APP in cell lysate and in exosomes purified from the medium after 25-OHC treatment. It counts as cell-based, human. Particulars: different dosage of 25-OHC. The procedure: (§1) FIGS. 8A-8C show graphs and images depicting that treatment with 25-OHC decreased exosomal APP but increases intracellular APP. SH-SY5Y cells with APP over-expression were treated with different dosage of 25-OHC.
(§2) SH-SY5Y cells over-express human APP were cultured in DMEM with 10% FBS. One day before exosome preparation, medium was changed to blank DMEM to avoid the contamination of serum exosomes. 24 hour after medium change, the mediums were collected, and spin at 200 g for 5 min to pellet down floating cells. The cell free medium was further centrifuged at 100,000 g for 1 h at 4° C., and the pellet containing exosomes was dissolved in RIPA buffer
We used APP over-expression SH-SY5Y cell line to further check if the difference in exosomal APP is due to 25-OHC. Cells were treated with different dosage of 25-OHC and both cell lysate and exosomes from medium were collected. […] In contract, as the dosage of 25-OHC increased, more APP was found in the cell lysate fraction.

For experiment [2] the test system is unchanged. Description: FACS analysis of surface APP. It counts as cell-based, human. Particulars: 25-OHC treated vs control cells. As to the method:
as §1
More amounts of APP were detected on the cell surface of cells overexpressing APP after 25-OHC treatment.
In general terms: In flow cytometry, cells or beads pass a laser one at a time.

For the next experiment, the system named is APP trafficking in cells. As to the kind of experiment: Trafficking of antibody-labelled surface APP (fixed time points, time-lapse). It is filed as cell-based. Particulars: 25-OHC treated vs untreated cells; in untreated cells signal disappeared within 6 hours. As to the method:
FIGS. 10A-10C show images depicting increased retention time of APP inside cells after treatment with 25-OHC. […] Cells were fixed at different time points to check the distribution of APP at specific time.
We went on to check the trafficking of APP protein. Surface APP were labeled by antibody, and cells were put back to incubator and fixed at different time point for staining.

In experiment [3] the test system is APP over-expression SH-SY5Y cell line. Description: ELISA measurement of Aβ42 in exosomes collected from cell culture medium. It counts as cell-based, human. The following applies: different concentration of 25-OHC; three independent experiments. The procedure: ELISA measurement of Aβ42 in exosomes collected from cell culture medium with different concentration of 25-OHC treatment. Data are representative of three independent experiments. *p<0.05.
as §2
Quantification of Aβ42 was carried out with ELISA kit (Millipore) according to the manufactures' instructions.
Data are representative of three independent experiments.

The next experiment relates to SH-SY5Y cells. The following applies: co-treatment with 25-OHC, cells lysed 24 h later, blotted for APP.

Method for APP/PS1 mice: Mice at 2-month-old were injected with 25-OHC or saline as control every other day for duration of 1 month. Brains from these mice were sectioned and stained for amyloid-beta.
All experiments were performed with mice 3-4 months old and approved by the Institutional Animal Care and Use Committee of NUS.
Tissues were fixed in 4% paraformaldehyde, dehydrated, penetrated and paraffin embedded. […] For immunofluorescence (IF) or immunohistochemistry (IHC), sections were rehydrated and stained with primary antibody against Aβ (Cell signaling), followed by incubation with fluorescence-conjugated secondary antibodies (Invitrogen).

Consider `C[C@H](CCCC(C)(C)O)[C@H]1CC[C@H]2[C@@H]3CC=C4C[C@@H](O)CC[C@]4(C)[C@H]3CC[C@]12C` [25-OHC, 25-hydroxylated cholesterol], for which the “amount of Aβ in brain (plaque staining)” value with APP/PS1 mice is recorded as “significant high amount of Aβ”. Moreover, in experiment [1] (APP over-expression SH-SY5Y cells), the “cellular APP (cell lysate, Western blot)” value is given as “dosage dependent effect to increase cellular APP”. Further, the “exosomal APP (Western blot)” value in experiment [1] (exosomes from medium) is listed as “decreasing exosomal APP”. Moreover, the “amount of APP on cell surface (FACS)” value in experiment [2] is listed as “increased the amount of APP on cell surface”. Besides, the “trafficking / retention of APP in cells” value with APP trafficking in cells is “the trafficking of APP was slower”. Also, the “Aβ42 in exosomes (ELISA)” value in experiment [3] was “increased Aβ42 in exosomes”.
Regarding `CC(C)(C)C(=O)OCC(=O)[C@@]1(O)CC[C@H]2[C@@H]3CCC4=CC(=O)C=C[C@]4(C)[C@H]3[C@@H](O)C[C@@]21C` [prednisolone trimethylacetate], the “effect on 25-OHC induced increase of cellular APP” value in the experiment with SH-SY5Y cells was “had no effect”.
